# Measured values as given in patent publication US7166611B2, “Pharmaceutical compositions having appetite suppressant activity” (priority 1997, dated 2007).
# Tests used:
# Format in all cases: in vivo, rat
# rats = test: Bioassay of chromatographic fractions for appetite suppressant activity; conditions: bioassay of fractions from silica gel chromatography
# Excerpt: The extract may be prepared from plant material such as the stems and roots of said plants of the genus Trichocaulon or of the genus Hoodia. The genus Trichocaulon and the genus Hoodia include succulent plants growing in arid regions such as are found in Southern Africa. In one application of the invention, the active appetite suppressant extract is obtained from the species Trichocaulon piliferum. The species Trichocaulon officinale may also be used to provide an active appetite suppressant extract. In another application of the invention, the active appetite suppressant extract may be obtained from the species Hoodia currorii, Hoodia gordonii or Hoodia lugardii.
# The partially purified active extract may be dissolved in methanol, and may be further fractionated by column chromatography, employing silica gel as an adsorption medium and a chloroform/30% methanol mixture as an eluent. A plurality of different fractions may be obtained, and each may be evaluated, by suitable bioassaying procedures, to determine the appetite suppressant activity thereof.
# A fraction having appetite suppressant activity may preferably be further fractionated such as by column chromatography using silica gel as an adsorption medium and a 9:1 chloroform:methanol solvent, and the resultant sub-fractions bioassayed for their appetite suppressant activity. […]
# male Wistar rats [1] = test: Example 44 single oral dose study: food consumption
# Procedure: (§1) Sample 1 to 3 were each administered as a single oral dose to male Wistar rats. Two additional control groups received vehicle (distilled water or DMSO). Orally administered fenfluramine (7.5 mg/kg) was included as a reference standard.
# (§2) Fifty-five male Wistar rats were used for the study.
# (§3) Bodyweights, food consumption (food hopper weight) and water consumption (bottle weight) were recorded daily at the same time each day from the day of arrival until the termination of the study.
# (§4) On Day 1, the rats received a single oral (gavage) dose according to the following table:
# (§5) Groups 1–8 were dosed using a constant dose volume of 10 ml/kg and groups 9–12 were dosed using a dose volume of 1 ml/kg.
# (§6) Food and water consumption were also measured at […] after dosing on Day 1.
# (§7) The post-dose food and water consumption measurements and bodyweights at each time-point for the P57-treated animals were compared with those for the relevant, similarly-treated vehicle control group using analysis of variance followed by Williams' test for comparisons with controls.
# (§8) The data for the fenfluramine-treated animals was compared with that for the vehicle-treated control group using Student's t test.
# male Wistar rats [2] = test: Example 44 single oral dose study: liver histopathology; conditions: for Liver (ORO stain): Hepatocyte fat - centrilobular(Total) / Liver (ORO stain): Hepatocyte fat - centrilobular, Minimal / Liver (ORO stain): No abnormalities detected / Liver: Hepatocyte necrosis - focal (Total) / Liver: Hepatocyte necrosis - focal, Minimal / Liver: No abnormalities detected (incidence) / Liver: Parenchymal inflammatory cell foci (Total) / Liver: Parenchymal inflammatory cell foci, Minimal / Liver: Portal leucocytes (Total) / Liver: Portal leucocytes, Minimal / Liver: Portal lymphoid infiltration (Total) / Liver: Portal lymphoid infiltration, Minimal: 5 examined
# Excerpt: Following the measurements of Day 8, the animals were killed by carbon dioxide asphyxiation, and the livers excised and placed in 10% buffered formalin, prior to histology.
# Paraffin wax sections of each liver were taken at 4–5 μm and stained with haematoxylin and eosin. Additional sections were cut on a cryostat at 12 μm and stained for fat with Oil Red O (ORO).
# Histological examination was restricted to the liver.
# [3] = Example 44 single oral dose study: bodyweight
# Procedure: as §1, §2, §3, §4, §5, §7, §8
# male Wistar rats [4] = test: Example 44 single oral dose study: water consumption
# Procedure: as §1, §2, §3, §4, §5, §6, §7, §8
# [5] = 2.5 mg/kg single oral dose on Day 1
# [6] = 5.0 mg/kg single oral dose on Day 1
# [7] = 2.5 and 5.0 mg/kg single oral dose
substance,measurement,setting,value
3-0-[-β-D-thevetopyranosyl-(1→4)-β-D-cymaropyranosyl-(1→4)-β-D-cymaropyranosyl]-12β-0-tigloyloxy-14-hydroxy-14β-pregn-5-en-20-one [Compound (1)],appetite suppressant activity,rats,marked appetite suppressant activity
same,Group mean food consumption (g ± sd) between Days: 1–2,male Wistar rats [1]; 2.5 mg/kg single oral dose,26.8 ± 3.33 g
same,Group mean food consumption (g ± sd) between Days: 2–3,male Wistar rats [1]; 2.5 mg/kg single oral dose,29.1 ± 3.43 g
same,Group mean food consumption (g ± sd) between Days: 3–4,male Wistar rats [1]; 2.5 mg/kg single oral dose,31.7 ± 3.08 g
same,Group mean food consumption (g ± sd) between Days: 4–5,male Wistar rats [1]; 2.5 mg/kg single oral dose,34.0 ± 2.95 g
same,Group mean food consumption (g ± sd) between Days: 5–6,male Wistar rats [1]; 2.5 mg/kg single oral dose,34.4 ± 4.32 g
same,Group mean food consumption (g ± sd) between Days: 6–7,male Wistar rats [1]; 2.5 mg/kg single oral dose,33.1 ± 4.11 g
same,Group mean food consumption (g ± sd) between Days: 7–8,male Wistar rats [1]; 2.5 mg/kg single oral dose,34.8 ± 3.71 g
same,Group mean food consumption (g ± sd) between Days: 1–2,male Wistar rats [1]; 5.0 mg/kg single oral dose,22.1 ± 2.19 g
same,Group mean food consumption (g ± sd) between Days: 2–3,male Wistar rats [1]; 5.0 mg/kg single oral dose,21.0 ± 3.07 g
same,Group mean food consumption (g ± sd) between Days: 3–4,male Wistar rats [1]; 5.0 mg/kg single oral dose,27.6 ± 5.26 g
same,Group mean food consumption (g ± sd) between Days: 4–5,male Wistar rats [1]; 5.0 mg/kg single oral dose,30.5 ± 3.33 g
same,Group mean food consumption (g ± sd) between Days: 5–6,male Wistar rats [1]; 5.0 mg/kg single oral dose,33.0 ± 3.16 g
same,Group mean food consumption (g ± sd) between Days: 6–7,male Wistar rats [1]; 5.0 mg/kg single oral dose,32.4 ± 3.25 g
same,Group mean food consumption (g ± sd) between Days: 7–8,male Wistar rats [1]; 5.0 mg/kg single oral dose,33.0 ± 3.84 g
same,duration of reduction in food consumption,male Wistar rats [1]; 5.0 mg/kg single oral dose,48 hours post-dose
same,food consumption versus vehicle-treated animals,male Wistar rats [1]; 5.0 mg/kg single oral dose,statistically significant reductions in food consumption
same,Liver (ORO stain): Hepatocyte fat - centrilobular(Total),"male Wistar rats [2]; Group 9, 2.5 mg/kg",2
same,"Liver (ORO stain): Hepatocyte fat - centrilobular, Minimal","male Wistar rats [2]; Group 9, 2.5 mg/kg",2
same,Liver (ORO stain): No abnormalities detected,"male Wistar rats [2]; Group 9, 2.5 mg/kg",3
same,Liver: Hepatocyte necrosis - focal (Total),"male Wistar rats [2]; Group 9, 2.5 mg/kg",1
same,"Liver: Hepatocyte necrosis - focal, Minimal","male Wistar rats [2]; Group 9, 2.5 mg/kg",1
same,Liver: No abnormalities detected (incidence),"male Wistar rats [2]; Group 9, 2.5 mg/kg",0
same,Liver: Parenchymal inflammatory cell foci (Total),"male Wistar rats [2]; Group 9, 2.5 mg/kg",0
same,"Liver: Parenchymal inflammatory cell foci, Minimal","male Wistar rats [2]; Group 9, 2.5 mg/kg",0
same,Liver: Portal leucocytes (Total),"male Wistar rats [2]; Group 9, 2.5 mg/kg",1
same,"Liver: Portal leucocytes, Minimal","male Wistar rats [2]; Group 9, 2.5 mg/kg",1
same,Liver: Portal lymphoid infiltration (Total),"male Wistar rats [2]; Group 9, 2.5 mg/kg",5
same,"Liver: Portal lymphoid infiltration, Minimal","male Wistar rats [2]; Group 9, 2.5 mg/kg",5
same,Liver (ORO stain): Hepatocyte fat - centrilobular(Total),"male Wistar rats [2]; Group 10, 5 mg/kg",2
same,"Liver (ORO stain): Hepatocyte fat - centrilobular, Minimal","male Wistar rats [2]; Group 10, 5 mg/kg",2
same,Liver (ORO stain): No abnormalities detected,"male Wistar rats [2]; Group 10, 5 mg/kg",3
same,Liver: Hepatocyte necrosis - focal (Total),"male Wistar rats [2]; Group 10, 5 mg/kg",0
same,"Liver: Hepatocyte necrosis - focal, Minimal","male Wistar rats [2]; Group 10, 5 mg/kg",0
same,Liver: No abnormalities detected (incidence),"male Wistar rats [2]; Group 10, 5 mg/kg",1
same,Liver: Parenchymal inflammatory cell foci (Total),"male Wistar rats [2]; Group 10, 5 mg/kg",0
same,"Liver: Parenchymal inflammatory cell foci, Minimal","male Wistar rats [2]; Group 10, 5 mg/kg",0
same,Liver: Portal leucocytes (Total),"male Wistar rats [2]; Group 10, 5 mg/kg",0
same,"Liver: Portal leucocytes, Minimal","male Wistar rats [2]; Group 10, 5 mg/kg",0
same,Liver: Portal lymphoid infiltration (Total),"male Wistar rats [2]; Group 10, 5 mg/kg",4
same,"Liver: Portal lymphoid infiltration, Minimal","male Wistar rats [2]; Group 10, 5 mg/kg",4
same,histological examination of the liver,"male Wistar rats [2]; all doses tested, single oral dose, livers taken Day 8",No treatment-related changes were detected
same,Group mean bodyweight (g ± sd) on Day: 2,[3]; [5],191.2 ± 11.15 g
same,Group mean bodyweight (g ± sd) on Day: 3,[3]; [5],200.0 ± 11.25 g
same,Group mean bodyweight (g ± sd) on Day: 4,[3]; [5],209.6 ± 12.28 g
same,Group mean bodyweight (g ± sd) on Day: 5,[3]; [5],219.6 ± 12.95 g
same,Group mean bodyweight (g ± sd) on Day: 6,[3]; [5],229.4 ± 13.69 g
same,Group mean bodyweight (g ± sd) on Day: 7,[3]; [5],238.4 ± 14.50 g
same,Group mean bodyweight (g ± sd) on Day: 8,[3]; [5],247.0 ± 14.35 g
same,Group mean bodyweight (g ± sd) on Day: 2,[3]; [6],192.0 ± 9.93 g
same,Group mean bodyweight (g ± sd) on Day: 3,[3]; [6],192.4 ± 9.84 g
same,Group mean bodyweight (g ± sd) on Day: 4,[3]; [6],201.0 ± 11.27 g
same,Group mean bodyweight (g ± sd) on Day: 5,[3]; [6],209.4 ± 12.70 g
same,Group mean bodyweight (g ± sd) on Day: 6,[3]; [6],219.8 ± 11.86 g
same,Group mean bodyweight (g ± sd) on Day: 7,[3]; [6],228.2 ± 12.28 g
same,Group mean bodyweight (g ± sd) on Day: 8,[3]; [6],236.0 ± 13.95 g
same,effects on bodyweights,[3]; [7],No statistically significant effects on bodyweights
same,Group mean water consumption (g ± sd) between Days: 1–2,male Wistar rats [4]; 2.5 mg/kg single oral dose,32.2 ± 4.01 g
same,Group mean water consumption (g ± sd) between Days: 2–3,male Wistar rats [4]; 2.5 mg/kg single oral dose,36.1 ± 12.42 g
same,Group mean water consumption (g ± sd) between Days: 3–4,male Wistar rats [4]; 2.5 mg/kg single oral dose,38.3 ± 11.71 g
same,Group mean water consumption (g ± sd) between Days: 4–5,male Wistar rats [4]; 2.5 mg/kg single oral dose,41.5 ± 16.60 g
same,Group mean water consumption (g ± sd) between Days: 5–6,male Wistar rats [4]; 2.5 mg/kg single oral dose,34.7 ± 7.57 g
same,Group mean water consumption (g ± sd) between Days: 6–7,male Wistar rats [4]; 2.5 mg/kg single oral dose,33.0 ± 4.20 g
same,Group mean water consumption (g ± sd) between Days: 7–8,male Wistar rats [4]; 2.5 mg/kg single oral dose,35.3 ± 8.70 g
same,Group mean water consumption (g ± sd) between Days: 1–2,male Wistar rats [4]; 5.0 mg/kg single oral dose,33.9 ± 2.40 g
same,Group mean water consumption (g ± sd) between Days: 2–3,male Wistar rats [4]; 5.0 mg/kg single oral dose,31.5 ± 8.12 g
same,Group mean water consumption (g ± sd) between Days: 3–4,male Wistar rats [4]; 5.0 mg/kg single oral dose,35.1 ± 3.82 g
same,Group mean water consumption (g ± sd) between Days: 4–5,male Wistar rats [4]; 5.0 mg/kg single oral dose,37.7 ± 5.99 g
same,Group mean water consumption (g ± sd) between Days: 5–6,male Wistar rats [4]; 5.0 mg/kg single oral dose,39.5 ± 7.78 g
same,Group mean water consumption (g ± sd) between Days: 6–7,male Wistar rats [4]; 5.0 mg/kg single oral dose,37.4 ± 11.07 g
same,Group mean water consumption (g ± sd) between Days: 7–8,male Wistar rats [4]; 5.0 mg/kg single oral dose,37.8 ± 6.42 g
same,effects on water consumption,male Wistar rats [4]; [7],No statistically significant effects on water consumption
